The values that follow come from PubChem BioAssay (NCI).

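The compound was tested at five concentrations on cells cultured in 96-well plates, with a 48-hour exposure period. TGI marks complete inhibition of growth.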 A value given as a limit tells only on which side of the number the result lay.

What all share (test): NCI tumour cell line growth inhibition, 48 h
In experiment [1] the test system is 786-0 renal.
The subject of experiment [2] is A498 renal.
The test system of experiment [3] is CAKI-1 renal.
For experiment [4], the system named is HOP-92 NSCLC.
In experiment [5] the test system is IGROV1 ovarian.
For experiment [6], the system named is K-562 leukemia.
The test system of experiment [7] is MOLT-4 leukemia.
The subject of experiment [8] is RXF 393 renal.
The subject of experiment [9] is SK-MEL-2 melanoma.
The subject of experiment [10] is SN12C renal.
Experiment [11] deals with SNB-19 CNS.
The test system of experiment [12] is SNB-75 CNS.
Experiment [13] has as its system U251 CNS.
The subject of experiment [14] is UACC-62 melanoma.
For experiment [15], the system named is HCT-15 colon.
Experiment [16] concerns DU-145 prostate.
Experiment [17] deals with NCI/ADR-RES ovarian.
Experiment [18] has as its system PC-3 prostate.

Regarding `CCOC(OCC)(OCC)C(Br)CC` (stereo not drawn), the TGI in [1] is 37.8 µM; in [2] it was more than 100 µM; in [3], more than 100 µM; in [4] it was more than 100 µM; in experiment [5] it was more than 100 µM; in [6] it was more than 100 µM. Further, the TGI in experiment [7], in experiment [8], in experiment [9], in experiment [10], in experiment [11] and in experiment [12] was more than 100 µM throughout. The TGI in [13] and in experiment [14] was more than 100 µM throughout.

With `CC(=O)Nc1ccc2c(c1)C(=O)c1ccccc1-2`, the TGI in experiment [1], in [15], in [5], in experiment [6], in [7] and in [8] was more than 100 µM in each case. Besides, the TGI in [10], in [11], in experiment [12], in [13] and in experiment [14] was more than 100 µM in each case.

With `N/C(CCSCCSCC/C(N)=N\O)=N\O`, the TGI in experiment [1], in experiment [3], in experiment [16], in [15], in experiment [4] and in [5] was more than 100 µM each time. Further, the TGI in experiment [6], in experiment [7], in experiment [17], in [18], in [8] and in experiment [10] was more than 100 µM throughout. In addition, the TGI in experiment [11], in [12], in [13] and in experiment [14] was more than 100 µM in each case.

As for `COC(=O)/C(=N\N)C(C(=O)C(=O)Nc1cc(Cl)ccc1Cl)c1nc2ccc([N+](=O)[O-])cc2[nH]c1=O` (stereo not drawn), the TGI in [1], in experiment [2], in experiment [3], in experiment [15], in experiment [4] and in experiment [5] was more than 100 µM in each case. In addition, the TGI in experiment [6], in experiment [7], in [17], in experiment [18], in [8] and in [9] was more than 100 µM each time. Moreover, the TGI in experiment [10], in experiment [12], in experiment [13] and in experiment [14] was more than 100 µM throughout.

As for `CCN(CC)c1ccc(Cl)c2c1C(O)(C(C)C)C2(C)C` (stereo not drawn), the TGI turned out to be 27.7 µM in [1]; 35.7 µM in experiment [2]; 34.2 µM in [3]; 44.9 µM in experiment [15]; 27.8 µM in experiment [5]; 43.9 µM in [6]. Besides, the TGI in experiment [7] came to 35.8 µM; in experiment [8] it was 29.7 µM; in [9] it was 29.4 µM; in experiment [10], 30.5 µM; in experiment [11], 28.7 µM; in [12], 32 µM. The molecule further registered a TGI in [13] of 30.5 µM.

On to `COC(=O)[C@@H]1Cc2ccc(OC)c(c2)OCCC(=O)N1`, for which the TGI in [1], in experiment [3], in experiment [16], in experiment [15], in experiment [5] and in experiment [6] was more than 100 µM each time. Further, the TGI in [7], in [17], in experiment [18], in experiment [8], in experiment [9] and in experiment [11] was more than 100 µM in each case. Besides, the TGI in [12], in experiment [13] and in experiment [14] was more than 100 µM throughout.

For `CCOc1ccc(OP2(=O)NC(=O)C=C(C)N2)cc1` (stereo not drawn), the TGI in [1], in experiment [2], in [3], in experiment [15], in experiment [4] and in experiment [5] was more than 100 µM each time. Further, the TGI in experiment [6], in experiment [7], in [8], in experiment [9], in experiment [10] and in [11] was more than 100 µM throughout. Besides, the TGI in [12], in experiment [13] and in experiment [14] was more than 100 µM in each case.

Turning to `Cc1nn(C(=O)Cc2ccccc2)c2c1C(c1ccc(/C=C/c3ccccc3)cc1)SC(N)=N2` (stereo not drawn), the TGI in experiment [1], in experiment [2], in [3], in experiment [16], in [15] and in experiment [5] was more than 100 µM in each case. The TGI in experiment [6], in [7], in experiment [18], in experiment [10], in experiment [11] and in experiment [12] was more than 100 µM throughout. The molecule further yielded a TGI in experiment [14] of more than 100 µM.

As to `Cc1cc(C=O)c2c(=O)c3c(O)ccc(/C=C/C(C)C)c3oc2c1`, the TGI is more than 100 µM in experiment [1]; more than 100 µM in experiment [3]; 99.6 µM in experiment [15]; more than 100 µM in [4]; more than 100 µM in [5]; more than 100 µM in experiment [6]. The TGI in [7] was 86.5 µM; in experiment [9], more than 100 µM; in experiment [11] it was more than 100 µM; in experiment [12] it was more than 100 µM; in experiment [13] it was more than 100 µM; in experiment [14], more than 100 µM.

Regarding `COC(=O)N/N=c1\cc(C(=O)Nc2ccc(C)c(C)c2)oc2cc(O)ccc12`, the TGI in experiment [1], in experiment [2], in experiment [3], in [15], in experiment [4] and in experiment [5] was more than 100 µM throughout. In addition, the TGI in [6], in experiment [7], in experiment [8], in experiment [9], in experiment [10] and in experiment [11] was more than 100 µM each time. Moreover, the TGI in [12], in experiment [13] and in experiment [14] was more than 100 µM in each case.

For the molecule `CCCN1C(=O)CN(S(=O)(=O)c2ccc(Cl)cc2)C1=O`, the TGI in experiment [1], in experiment [2], in [3], in experiment [16], in [15] and in experiment [4] was more than 100 µM each time. For the same molecule, the TGI in [5], in [6], in [18], in experiment [8], in experiment [9] and in [10] was more than 100 µM in each case. Further, the TGI in experiment [11], in experiment [12], in [13] and in experiment [14] was more than 100 µM in each case.

For `CN(/N=C/c1ccccn1)C1=NCCN1`, the TGI in experiment [1], in experiment [2], in experiment [3], in [15], in experiment [4] and in experiment [5] was more than 100 µM in each case. Moreover, the TGI in experiment [6], in [7], in experiment [17], in experiment [18], in experiment [8] and in experiment [9] was more than 100 µM in each case. In addition, the TGI in [11], in [12], in experiment [13] and in [14] was more than 100 µM each time.

In the case of `COC(=O)C1=C(OC)C(=P2(c3ccccc3)CC(c3ccccc3)=C2c2ccccc2)C(C(=O)OC)=C1C(=O)OC` (stereo not drawn), the TGI is more than 100 µM in [1]; more than 93.6 µM in experiment [3]; more than 100 µM in experiment [16]; more than 62.7 µM in experiment [15]; more than 100 µM in experiment [5]; 13.8 µM in [7]. The TGI in experiment [17], in [18], in [8], in [9], in experiment [10] and in [11] was more than 100 µM throughout. The TGI in experiment [12], in experiment [13] and in experiment [14] was more than 100 µM throughout.

`CCN(CC)/[N+]([O-])=N/OS(=O)(=O)N(C)C`: the TGI in experiment [1], in experiment [2], in [3], in experiment [16], in experiment [15] and in experiment [4] was more than 100 µM in each case. The TGI in experiment [5], in [6], in [7], in experiment [17], in experiment [8] and in experiment [10] was more than 100 µM throughout. Moreover, the TGI in experiment [11], in experiment [12], in [13] and in experiment [14] was more than 100 µM in each case.
